Legend:
[1] = test system: rabbit serum obtained by immunizing a rabbit with the SARS-CoV strain Frankfurt 1; format: binding; design: Binding of a rabbit serum to linear peptides / Binding of a rabbit serum to looped peptides / Rabbit serum linear peptides / Rabbit serum looped peptides / Binding of a rabbit serum to linear peptides of protein N of SARS-CoV Urbani (Rabbit serum linear peptides) / Binding of a rabbit serum to looped/cyclic peptides of protein N of SARS-CoV Urbani (Rabbit serum looped peptides): unit not given here
[2] = test system: antibodies in sera from SARS patients (sera 1a, 1b, 2, 6, 37, 62, London, SARS-yellow, SARS-green); format: binding, human; design: Binding of serum 6 to linear peptides of protein X1 of SARS-CoV Urbani / Binding of serum 37 to linear peptides of protein X1 of SARS-CoV Urbani / Binding of serum 6 to looped/cyclic peptide (PEPSCAN-ELISA) / Binding of serum 37 to looped/cyclic peptide (PEPSCAN-ELISA) / Binding of serum 37 to looped/cyclic peptides of protein X1 of SARS-CoV Urbani / Binding of serum 6 to linear peptides of protein X2 / Binding of serum 37 to linear peptides of protein X2 / Binding of serum 37 to looped/cyclic peptides of protein X2 of SARS-CoV Urbani / Binding of serum 6 to linear peptides of protein M of SARS-CoV Urbani / Binding of serum 37 to linear peptides of protein M of SARS-CoV Urbani / Binding of serum 6 to looped/cyclic peptides of protein M of SARS-CoV Urbani / Binding of serum 37 to looped/cyclic peptides of protein M of SARS-CoV Urbani / Binding of serum 6 to linear peptides of protein X3 of SARS-CoV Urbani / Binding of serum 37 to linear peptides of protein X3 of SARS-CoV Urbani / Binding of serum 37 to looped/cyclic peptides of protein X3 of SARS-CoV Urbani / Binding of serum 6 to linear peptides of protein X4 of SARS-CoV Urbani / Binding of serum 37 to linear peptides of protein X4 of SARS-CoV Urbani / Binding of serum 37 to looped/cyclic peptides of protein X4 of SARS-CoV Urbani / Binding of serum 6 to linear peptides of protein X5 of SARS-CoV Urbani / Binding of serum 37 to linear peptides of protein X5 of SARS-CoV Urbani / Binding of serum 37 to looped/cyclic peptides of protein X5 of SARS-CoV Urbani / Binding of serum 6 to linear peptides of protein N of SARS-CoV Urbani / Binding of serum 37 to linear peptides of protein N of SARS-CoV Urbani / Binding of serum 6 to linear peptide (PEPSCAN-ELISA) / Binding of serum 1a to looped/cyclic peptides of protein N of SARS-CoV Urbani / Binding of serum 1b to looped/cyclic peptides of protein N of SARS-CoV Urbani / Binding of serum 2 to looped/cyclic peptides of protein N of SARS-CoV Urbani / Binding of serum 6 to looped/cyclic peptides of protein N of SARS-CoV Urbani / Binding of serum 37 to looped/cyclic peptides of protein N of SARS-CoV Urbani / Binding of serum 62 to looped/cyclic peptides of protein N of SARS-CoV Urbani / Binding of serum London to looped/cyclic peptides of protein N of SARS-CoV Urbani / Binding of serum SARS-green to looped/cyclic peptides of protein N of SARS-CoV Urbani: unit not given here
[3] = test system: control sera (pooled serum of ten healthy LUMC hospital workers; commercial negative donor pooled serum from the Dutch bloodbank); format: binding, human; design: Binding of Control serum LUMC to linear peptides / Binding of Control serum Blood-bank to linear peptides / Binding of Control serum LUMC to looped peptides / Binding of Control Serum Blood-Bank to Looped peptides / Binding of Control serum LUMC to linear peptides of the protein M of SARS-CoV Urbani / Binding of Control serum Blood-bank to linear peptides of the protein M of SARS-CoV Urbani / Binding of Control serum LUMC to looped peptides of the protein M of SARS-CoV Urbani / Binding of Control Serum Blood-Bank to Looped peptides of the protein M of SARS-CoV Urbani: unit not given here

Sequence	Binding of a rabbit serum to linear peptides [1]	Binding of a rabbit serum to looped peptides [1]	Binding of serum 1a to linear peptides of protein E of SARS-CoV Urbani [2]	Binding of serum 1a to looped/cyclic peptides of protein E of SARS-CoV Urbani [2]	Binding of serum 1b to linear peptides of protein E of SARS-CoV Urbani [2]	Binding of serum 1b to looped/cyclic peptides of protein E of SARS-CoV Urbani [2]	Binding of serum 2 to linear peptides of protein E of SARS-CoV Urbani [2]	Binding of serum 2 to looped/cyclic peptides of protein E of SARS-CoV Urbani [2]	Binding of serum 6 to linear peptides of protein E of SARS-CoV Urbani [2]	Binding of serum 6 to looped/cyclic peptides of protein E of SARS-CoV Urbani [2]	Binding of serum 37 to linear peptides of protein E of SARS-CoV Urbani [2]	Binding of serum 37 to looped/cyclic peptides of protein E of SARS-CoV Urbani [2]	Binding of serum 62 to linear peptides of protein E of SARS-CoV Urbani [2]	Binding of serum 62 to looped/cyclic peptides of protein E of SARS-CoV Urbani [2]	Binding of serum London to linear peptides of protein E of SARS-CoV Urbani [2]	Binding of serum London to looped/cyclic peptides of protein E of SARS-CoV Urbani [2]	Binding of Control Serum Blood-Bank to Looped peptides [3]	Binding of Control serum Blood-bank to linear peptides [3]	Binding of Control serum LUMC to linear peptides [3]	Binding of Control serum LUMC to looped peptides [3]	also measured
FLLVTLAILTALRLC	0.1	0.0	0.6	0.3	0.5	0.0	0.6	0.5	0.3	1	0.3	0.6	0.3	0.6	0.6	1.2	0.5	0.6	0.5	0.1	Binding of serum SARS-green to linear peptides of protein E of SARS-CoV Urbani [2]: 0.5; Binding of serum SARS-green to looped/cyclic peptides of protein E of SARS-CoV Urbani [2]: 0.3; Binding of serum SARS-yellow to linear peptides of protein E of SARS-CoV Urbani [2]: 0.2; Binding of serum SARS-yellow to looped/cyclic peptides of protein E of SARS-CoV Urbani [2]: 0.5
LAILTALRLCAYCCN	0.6	0.6	0.8	0.8	0.7	0.4	0.5	0.6	0.5	0.5	0.8	0.6	0.8	0.7	0.5	0.4	0.7	0.7	0.6	0.8	Binding of serum SARS-green to linear peptides of protein E of SARS-CoV Urbani [2]: 0.5; Binding of serum SARS-green to looped/cyclic peptides of protein E of SARS-CoV Urbani [2]: 0.5; Binding of serum SARS-yellow to linear peptides of protein E of SARS-CoV Urbani [2]: 0.2; Binding of serum SARS-yellow to looped/cyclic peptides of protein E of SARS-CoV Urbani [2]: 0.8
IVNSVLLFLAFVVFL	0.5	0.5	0.8	0.6	0.6	0.4	0.4	0.5	0.7	0.3	0.7	0.6	0.6	0.6	0.4	0.3	0.5	0.6	0.4	0.7	Binding of serum SARS-green to linear peptides of protein E of SARS-CoV Urbani [2]: 0.3; Binding of serum SARS-green to looped/cyclic peptides of protein E of SARS-CoV Urbani [2]: 0.2; Binding of serum SARS-yellow to linear peptides of protein E of SARS-CoV Urbani [2]: 0.2; Binding of serum SARS-yellow to looped/cyclic peptides of protein E of SARS-CoV Urbani [2]: 0.7
VAALVFLILCFTIKR	–	–	–	–	–	–	–	–	–	–	–	–	–	–	–	–	0.8	0.5	0.4	0.6	Rabbit serum linear peptides [1]: 0.5; Rabbit serum looped peptides [1]: 0.6; Binding of serum 1a to linear peptides of protein X4 of SARS-CoV Urbani [2]: 0.6; Binding of serum 1a to looped/cyclic peptides of protein X4 of SARS-CoV Urbani [2]: 0.8; Binding of serum 1b to linear peptides of protein X4 of SARS-CoV Urbani [2]: 0.5; Binding of serum 1b to looped/cyclic peptides of protein X4 of SARS-CoV Urbani [2]: 0.4; Binding of serum 2 to linear peptides of protein X4 of SARS-CoV Urbani [2]: 0.4; Binding of serum 2 to looped/cyclic peptides of protein X4 of SARS-CoV Urbani [2]: 0.7; Binding of serum 6 to linear peptides of protein X4 of SARS-CoV Urbani [2]: 0.5; Binding of serum 6 to looped/cyclic peptides of protein X4 of SARS-CoV Urbani [2]: 0.6; Binding of serum 37 to linear peptides of protein X4 of SARS-CoV Urbani [2]: 0.7; Binding of serum 37 to looped/cyclic peptides of protein X4 of SARS-CoV Urbani [2]: 0.7; Binding of serum 62 to linear peptides of protein X4 of SARS-CoV Urbani [2]: 0.7; Binding of serum 62 to looped/cyclic peptides of protein X4 of SARS-CoV Urbani [2]: 0.7; Binding of serum London to linear peptides of protein X4 of SARS-CoV Urbani [2]: 0.6; Binding of serum London to looped/cyclic peptides of protein X4 of SARS-CoV Urbani [2]: 0.3; Binding of serum SARS-green to linear peptides of protein X4 of SARS-CoV Urbani [2]: 0.5; Binding of serum SARS-green to looped/cyclic peptides of protein X4 of SARS-CoV Urbani [2]: 0.4; Binding of serum SARS-yellow to linear peptides of protein X4 of SARS-CoV Urbani [2]: 0.5; Binding of serum SARS-yellow to looped/cyclic peptides of protein X4 of SARS-CoV Urbani [2]: 0.5
VSEETGTLIVNSVLL	0.4	0.1	0.8	0.7	0.5	0.6	0.3	0.6	0.4	0.5	0.5	0.7	0.7	0.9	0.5	0.5	0.9	0.8	0.5	0.7	Binding of serum SARS-green to linear peptides of protein E of SARS-CoV Urbani [2]: 0.4; Binding of serum SARS-green to looped/cyclic peptides of protein E of SARS-CoV Urbani [2]: 0.6; Binding of serum SARS-yellow to linear peptides of protein E of SARS-CoV Urbani [2]: 0.1; Binding of serum SARS-yellow to looped/cyclic peptides of protein E of SARS-CoV Urbani [2]: 0.7
